Calls of active or inactive are those of the source.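 Rule for the calls: active = compounds giving half or more protection of infected cells from virus-caused growth loss, again on retest; inactive = the rest.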 Where a SMILES comes first, the peptide text is derived from it. [ ]: non-standard residue; d: D form. The star is where a group is joined. mTyr = N[CH](Cc1cccc(O)c1)C(=O)O; ΔPro = O=C(O)[CH]1C=CCN1; Cbz = O=C(OCc1ccccc1)*; OBn = c1ccc(CO*)cc1
Tested on: CEM cells HIV-1 protection, formazan growth assay
Test: NCI AIDS Antiviral Assay
Details: for IC50: measured here: growth of uninfected CEM cells
Outline: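 Steps: treat uninfected and HIV-1-infected human CEM cells at five drug levels; quantify growth by soluble formazan; retest any compound reaching 50% protection; classify actives from the retest.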

Row | Compound | EC50 [µM] | IC50 [µM] | outcome
1 | O[C@]12c3ccccc3C1CCCC2N1CCOCC1 (some centres undefined) | > 200 | > 200 | –
2 | COCCCN1C(=O)C2c3[nH]c4ccccc4c3C3CCC(C(C)(C)C)CC3C2C1=O (centres undefined) | > 200 | 31.6 | –
3 | O=C1C(Cl)=CC(=C2C=C(Cl)C(=O)C(Cl)=C2)C=C1Cl | > 200 | 42.7 | –
4 | Cc1c(N=Nc2ccc(Br)cc2)c(=O)n(-c2ccccc2)c(=S)n1-c1nc2ccccc2s1 | > 83.2 | 19.5 | –
5 | S=C1CC(c2ccc(Cl)cc2)Sc2ccccc2N1 (centres undefined) | > 200 | 138 | –
6 | C=CCNC(=S)N/C=C(/C#N)C(=O)OC | – | – | inactive
7 | COc1cc2c(cc1OC)C1C=NC(C2)c2cc(OC)c(OC)cc21 (centres undefined) | – | – | inactive
8 | COc1ccc(CC2C(=O)NC(C)C(=O)N(C)C3C(=O)N(C)C(Cc4ccc(O)c(c4)Oc4ccc(cc4)C3O)C(=O)NC(C)C(=O)NC(C)C(=O)N2C)cc1 (centres undefined) | > 0.2 | 0.0631 | –
9 | CC(C)c1c(O[Si](C(C)C)(C(C)C)C(C)C)cc2c(c1O)CC[C@H]1C(C)(C)CCC[C@]21C | > 200 | 26.9 | –
10 | O=C(O)COc1cccc2ccccc(=O)c12 | > 200 | > 200 | –
11 | O=C1CCCC(O)=C1SC1=C(O)CCCC1=O | – | – | inactive
12 | CC[N+](C)(C)c1ccc(C(=C2C=CC(=[N+](C)C)C=C2)c2ccc(N(C)C)cc2)cc1 | – | – | inactive
13 | C[Si](C)(C)O[C@@H]1CCCC1N (some centres undefined) | – | – | inactive
14 | COc1cccc(-c2nc(N)c(C#N)c3c2CCS(=O)(=O)c2ccc(C)cc2-3)c1 | > 200 | 4.07 | –
15 | CCC1CC2CN3CCc4c([nH]c5c(-c6c(OC)ccc7c8c([nH]c67)[C@]6(C(=O)OC)CC7CC(CC)C6N(CC8)C7)c(O)ccc45)[C@](C(=O)OC)(C2)C13 (some centres undefined) | > 200 | 12.9 | –
16 | COc1ccc([C@H]2CC(=O)N3CCCC3N2)cc1 (some centres undefined) | > 200 | > 200 | –
17 | CCCCc1c2c(nc3c1CCc1cc4cc5c(nc4nc1-3)-c1nc3c(c(CCCC)c1CC5)CCCC3)CCCC2 | > 0.977 | > 0.977 | –
18 | [N-]=[N+]=Nc1c(Br)c(=O)[nH]c(=O)n1COCCO | – | – | inactive
19 | O=C(/C=C/C1C(=O)NC(=O)NC1=O)CC(=O)C(=O)Nc1cc(Cl)c(Cl)cc1Cl | > 209 | > 209 | –
20 | COc1cc2ccn3c4cc(OC)c(OC)cc4cc3c2cc1OC | 7.94 | 8.13 | –
21 | COC(=O)c1cccc(C)c1C1CN=NC12Cc1c(ccc(C)c1C)C2=O (centres undefined) | > 200 | > 200 | –
22 | O=[N+]([O-])c1ccc(P2(=O)Nc3ccccc3N2)cc1 | > 245 | 70.8 | –

Row | Compound | EC50 [µM] | IC50 [µM] | outcome
23 | NNC1=Nc2ccc(Cl)cc2C(=S)N2CSCC12 (centres undefined) | > 200 | > 200 | –
24 | CCOC(C[C@H](O[Si](C)(C)C(C)(C)C)[C@H]1COC(=S)S1)OCC | > 200 | 155 | –
25 | CN(c1ccc(Cl)cc1)S(=O)(=O)c1cccc([N+](=O)[O-])c1 | > 200 | – | –
26 | CCOC(=O)C(O)(NC(=O)c1ccc(F)cc1)C(F)(F)F (centres undefined) | > 200 | > 200 | –
27 | O=C(O)C1C=CCN1C(=O)C1C=CCN1C(=O)C1C=CCN1 (centres undefined) (H-[ΔPro]-[ΔPro]-[ΔPro]-OH; configuration not given here) | > 200 | 166 | –
28 | COc1ccc2ccc3c(CCN(C)C#N)cc4c(c3c2c1OC(C)=O)OCO4 | > 34.7 | > 34.7 | –
29 | COc1ccc(C(CC(=O)c2ccccc2)C(=O)c2ccc3c(c2)OCO3)cc1 (centres undefined) | > 200 | > 200 | –
30 | CCCNC(C#N)c1ccc(OCCCCCCCCCCOc2ccc(C(C#N)NCCC)cc2)cc1 (centres undefined) | > 200 | 11 | –
31 | CC(C)=CC(=O)N(C)C1C2CN3CCC(O2)C13 (centres undefined) | – | – | inactive
32 | COC(=O)C1(O)c2ccccc2N=C2C(=O)c3ccccc3N21 (centres undefined) | > 200 | > 200 | –
33 | CN1C2(c3ccccc3)C(C(=O)c3ccccc3)=C(C(=O)c3ccccc3)C1(c1ccccc1)c1c(-c3ccccc3)sc(-c3ccccc3)c12 | – | – | inactive
34 | CN(C)CCNc1ccc2c(=O)n(CCN(C)C)c(=O)n3c4ccc(N)cc4c(=O)c1c23 | > 200 | 0.0631 | –
35 | CN=C(N)N=Nc1c(O)[nH]c2ccccc12 | > 200 | > 200 | –
36 | CCOC(=O)c1cc(OC(C)=O)c2ccccc2c1 | > 100 | 95.5 | –
37 | Cc1cc(Cl)n2nc(-c3ccc(Cl)cc3)nc2n1 | > 49 | > 49 | –
38 | CCOC(=O)C(=O)Nc1ccc([N+](=O)[O-])cc1C#N | > 355 | > 355 | –
39 | Cc1cc2c(=O)cc(-c3ccc(C(=O)O)cc3)oc2c(C(=O)O)c1C | – | – | inactive
40 | O=C1Nc2ccc([N+](=O)[O-])c3c([N+](=O)[O-])ccc1c23 | > 200 | 1.02 | –
41 | NC1=NC2(CS1)CSC(N)=N2 | > 263 | > 263 | –
42 | NC(CCSSCCC(N)C(=O)NCC(=O)O)C(=O)NCC(=O)O (centres undefined) | > 64.6 | > 64.6 | –
43 | CC1C2(C)OC(=N)C(C#N)(C(c3ccco3)O2)C1(C#N)C#N (centres undefined) | > 200 | 14.5 | –
44 | COc1ccc(-c2nc(N)n(C)c2SSc2c(-c3ccc(OC)cc3)nc(N)n2C)cc1 | > 45.7 | 3.98 | –

Row | Compound | EC50 [µM] | IC50 [µM] | outcome
45 | CC(C)(C)OC(=O)NC(C)(C)C(=O)NCCC(=O)O | > 200 | > 200 | –
46 | C(=C/P(c1ccccc1)c1ccccc1)/P(c1ccccc1)c1ccccc1.C(=CP(c1ccccc1)c1ccccc1)P(c1ccccc1)c1ccccc1.[Pt] | > 3.63 | 2.63 | –
47 | CCCCCCCCCCCCCCCCC(C(=O)O)S(=O)(=O)O (centres undefined) | > 200 | 112 | –
48 | COc1ccc2c(c1O)C13CCN(C)C(C2)C12C=CC(=O)C3c1c(O)ccc(O)c12 (centres undefined) | > 200 | 2.95 | –
49 | COc1ccc(S(=O)(=O)NNS(C)(=O)=O)cc1OC | > 40.7 | > 40.7 | –
50 | CC1(C)CC(=O)C2=C(C1)NC1=C(C2)C(=O)CC(C)(C)C1 | > 200 | > 200 | –
51 | CC(C)/C(Cl)=N\OC(=O)Nc1ccccc1F | > 200 | 7.94 | –
52 | CCOC(=O)/C(=N/Nc1ccc(Cl)cc1)N1C(=S)C=C(C)NN(C)C1=S | > 200 | > 200 | –
53 | NCCS/C=C\C(=O)O | > 1700 | > 1700 | –
54 | CC(=O)[O-].[Zn].c1ccc(/C(=N\Nc2ccccn2)c2ccccn2)cc1 | – | – | inactive
55 | CC#CCCC1(CC)CCCN(C(=O)OC(C)C)C1OCC (centres undefined) | > 32.4 | > 32.4 | –
56 | COC(=O)C(Cc1cccc(O)c1)NC(=O)C(CC(=O)OCc1ccccc1)NC(=O)OCc1ccccc1 (centres undefined) (Cbz-Asp(OBn)-[mTyr]-OMe; configuration not given here) | > 200 | 91.2 | –
57 | Cc1c(Cl)ccc2c1NC(=O)C2(O)CC(=O)c1cccc2ccccc12 (centres undefined) | > 97.7 | > 97.7 | –
58 | Nc1ccc2c(C(F)(F)F)cc(=O)oc2c1 | > 22.9 | > 22.9 | –
59 | NC(=O)C(=CN1C(=O)CC(=O)NC1=S)C(N)=O | > 200 | > 200 | –
60 | CCC1(CC)SCc2nc3ccccc3n21 | > 200 | 63.1 | –
61 | CCC(CCNC(=O)c1ccccc1)(CCNC(=O)c1ccccc1)[N+](=O)[O-] | > 200 | > 200 | –
62 | O=C(N/C(=C\c1ccccc1O)C1NC(Cc2c[nH]c3ccccc23)C(=O)O1)c1ccccc1 (centres undefined) | > 100 | 74.1 | –
63 | COc1cc(/C=C/C(=N\NS(=O)(=O)c2ccc(C)cc2)c2sc(NNC(C)=O)nc2C)ccc1O | > 46.8 | > 46.8 | –
64 | O=C(/C=C\c1ccccc1O)c1ccc(O)cc1O | > 72.4 | 7.24 | –
65 | COc1cc(/C=C(\OC(C)=O)c2ccc3c(c2)OCO3)cc(OC)c1OC | > 126 | 52.5 | –
66 | C[N+](C)(C)CC1Cc2ccccc2C1=O (centres undefined) | – | – | inactive

Row | Compound | EC50 [µM] | IC50 [µM] | outcome
67 | COc1cc(C(=O)O[C@@H]2[C@@H](OC(=O)c3cc(OC)c(OC)c(OC)c3)[C@@H](OC)O[C@@H]3CO[C@@H](c4ccccc4)O[C@@H]23)cc(OC)c1OC | > 200 | > 200 | –
68 | Cc1cc(C)c2nccc(NCCCN(C)C)c2c1[N+](=O)[O-] | > 200 | 42.7 | –
69 | COc1cc(C(=O)C/C(CCC(=O)Nc2ccccc2[N+](=O)[O-])=N\NC(N)=O)ccc1O | > 562 | 525 | –
70 | N#CC(/C(=N\NC(N)=S)C(=O)NC1C2CC3CC(C2)CC1C3)c1ccc(Cl)cc1 (centres undefined) | > 17 | > 17 | –
71 | N#C/C(=C\c1ccccc1)c1ccc(F)cc1 | > 200 | 53.7 | –
72 | CC(=O)c1ccc(C(=O)c2ccccc2C(=O)O)cc1 | > 200 | > 200 | –
73 | Cc1ccc(C2=CSC3=NCCN23)cc1Cl | > 200 | 93.3 | –
74 | Nc1nn2cc3c(nc2c1N=Nc1ccccc1)CCCC3 | > 200 | 4.47 | –
75 | COC(=O)C(/C(=N/NC(N)=O)C(=O)Nc1c(C)cccc1C(C)(C)C)c1nc2ccc(Cl)cc2[nH]c1=O (centres undefined) | – | – | inactive
76 | CCCCCCCCCCC/C=C(/C(=O)CCCO[Si](C)(C)C(C)(C)C)C(=O)OC | > 200 | > 200 | –
77 | Cc1cc(=O)cc2sc3cc(Cl)ccc3nc1-2 | > 10.5 | > 10.5 | –
78 | CCOC(=O)c1c(C)[nH]c(=S)c(C#N)c1-c1ccc(Cl)cc1 | > 200 | 43.7 | –
79 | CC(C)(C)OC(=O)Cn1ncn(NC(=O)Cc2ccccc2)c1=O | > 200 | > 200 | –
80 | COc1ccc(-c2c(C#N)c(-c3ccc(C)cc3)n(NS(=O)(=O)c3ccccc3)c(=O)c2C#N)cc1 | > 200 | 29.5 | –
81 | Cc1ccc2c(c1)C(=O)C1(C2)Cc2cccc(C)c2C1=O (centres undefined) | > 200 | > 200 | –
82 | COc1cc([N+](=O)[O-])c(S(=O)(=O)O)cc1-[n+]1nc(C(=O)Nc2ccccc2)nn1-c1ccc([N+](=O)[O-])c(S(=O)(=O)[O-])c1 | > 200 | > 200 | –
83 | O=C(CC(C(=O)c1cccs1)c1ccsc1)c1ccccc1 (centres undefined) | > 200 | 151 | –
84 | O=C(O)CN1CCNCCN(CC(=O)O)CCNCC1 | > 200 | 3.63 | –
85 | CN1C(=O)C(O)(Cc2nccc3ccccc23)c2ccccc21 (centres undefined) | > 200 | 36.3 | –
86 | COc1ccc(-c2cnoc2-c2ccc(OC)c(OC)c2)cc1OC | > 55 | 0.355 | –

From PubChem BioAssay AID179 (DTP/NCI, 2004)
